Measured values reported in patent publication US20110218190A1, “THERAPEUTIC USES OF AMPA RECEPTOR MODULATORS FOR TREATMENT OF MOTOR DYSFUNCTION” (THE REGENTS OF THE UNIVERSITY OF CALIFORNIA, priority 2008, published 2011).

Key:
[1] = system: hypoglossal (XII) nerve discharge, neonatal rat medullary slice preparation; assay: Integrated hypoglossal (XII) nerve recordings in the in vitro neonatal rat medullary slice preparation; conditions: for ∫XII nerve discharge amplitude: longer-term (>2 hours) bath application; for long-lasting potentiation of ∫XII nerve amplitude: 1-12 hours after
Protocol: (§1) Experiments were performed on medullary slice preparations from 0-4 day-old neonatal rats that retain functional respiratory networks. Details of the preparation have been previously described. See Funk et al. (1993) J Neurophysiol 70:1497-1515. Briefly, neonatal rats were anesthetized with isoflurane, decerebrated, and the neuraxis isolated by dissection in artificial cerebrospinal fluid (ACSF) [(in mM) 128 NaCl, 3.0 KCl, 1.5 CaCl2, 1.0 mgSO4, 21 NaHCO3, 0.5 Na2HPO4, and 30 D-glucose] equilibrated with 95% 02-5% CO2 at 27-28° C. The neuraxis was sectioned with a vibratome in the transverse plane starting from the rostral medulla to within 150 μm nucleus ambiguous (Smith, J. C. et al., (1991) Science 254(5032):726-729. A single, 700 μm thick transverse slice was then cut, transferred to a 1.5 ml recording chamber and held in place by stainless steel harp. The slice was continuously superfused (≧3 ml/min) by ACSF with extracellular K^+ concentration raised to 9 mM to maintain rhythmic output.
Respiratory motor output was recorded from cut ends of XII nerve roots rectified, filtered and integrated. Peak amplitude was obtained from signals of XII nerve discharge. The activity in individual XII motoneurons was measured via whole-cell voltage-clamp techniques.
Cyclothiazide, CX546, and aniracetam were introduced by bath application to determine the effects of cyclothiazide, CX546, and aniracetam on respiratory activity. Stable respiratory activity was recorded for at least 30 minutes preceding drug application. After removal of the drug, recordings continued for over 12 hours.

[2] = system: snoring; assay: Treatment of a patient having snoring; assay type: in vivo; conditions: about 0.1 to 100 mg/kg body weight
Protocol: A patient is diagnosed as having snoring. This diagnosis is confirmed by the presence of snoring sounds made by the patient during sleep or conditions associated with snoring.
(§2) The patient is administered a pharmaceutical formulation of an AMPA receptor modulator. The AMPA receptor modulator is administered to the patient intravenously or orally at a dosage of about 0.1 to 100 mg AMPA receptor modulator/kg body weight as determined by the attending physician. The patient is monitored for reduction or inhibition of snoring and associated symptoms.
as §2, with “ampakine.” for “AMPA receptor modulator.”, “ampakine” for “AMPA receptor modulator”, “ampakine/kg” for “AMPA receptor modulator/kg”
as §2, with “CX546. CX546” for “an AMPA receptor modulator. The AMPA receptor modulator”, “CX546/kg” for “AMPA receptor modulator/kg”
as §2, with “aniracetam. Aniracetam” for “an AMPA receptor modulator. The AMPA receptor modulator”, “aniracetam/kg” for “AMPA receptor modulator/kg”
as §2, with “benzothiadiazide. Benzothiadiazide” for “an AMPA receptor modulator. The AMPA receptor modulator”, “benzothiadiazide/kg” for “AMPA receptor modulator/kg”
The patient is administered a pharmaceutical formulation of cyclothiazide. Cyclothiazide is administered to the patient intravenously at a dosage of about 0.1 to 100 mg cyclothiazide/kg body weight as determined by the attending physician. […]

[3] = system: genioglossus (GG) muscle activity in anesthetized freely breathing rats; assay: Genioglossus EMG and respiratory rate in anesthetized freely breathing rats; assay type: in vivo, Sprague-Dawley rats
Protocol: Anesthetized freely breathing rats provide a live animal model for determining effects of AMPA receptor modulators on genioglossus (GG) muscle activity.
Adult Sprague-Dawley rats (˜300 g) were anaesthetized with ketamine (100 mg kg^−1) and xylazine (10 mg kg^−1) injected intraperitoneally. 1-1.5 vol % isoflurane in O2 was inhaled during the experimental stage to provide for stable recordings and continued anesthesia. To measure GG electromyographic activity (EMG), stainless steel wire electrodes were sutured into the muscle. The raw GG EMG signal was rectified filtered and integrated.
Respiratory frequency and tidal volume were measured via pressure transducer attached to the rostral end of a polyethylene cannula that was inserted into the trachea of the anesthetized rat. The animal was freely breathing without the use of any ventilator or other method of respiratory support. These methods were taken in part from those reported in Tan, W., et al. (2008) Nat. Neurosci. 11(5):538-40 and Janczewski, W. A. and Feldman, J. L. (2006) J. Physiol. 570(Pt 2):407-20, incorporated by reference in their entirety.

[4] = system: obstructive sleep apnea; assay: Treatment of a patient having obstructive sleep apnea; assay type: in vivo; conditions: about 0.1 to 100 mg/kg body weight
Text: A patient is diagnosed as having obstructive sleep apnea. This diagnosis is confirmed by the presence of obstructive sleep apnea symptoms, including daytime sleepiness, unintentional sleep episodes, unrefreshing sleep, fatigue, or insomnia; awakening with breath holding, gasping, or choking; reports by a bed partner of loud snoring, breathing interruptions, or both in the patient's sleep; sleep study monitoring that documents >5 episodes of hypopnea and apnea per hour. The patient is administered a pharmaceutical formulation of benzothiadiazide. Benzothiadiazide is administered to the patient orally or intravenously at a dosage of about 0.1 to 100 mg benzothiadiazide/kg body weight as determined by the attending physician. The patient is monitored for reduction or inhibition of obstructive sleep apnea and associated symptoms. […] Cyclothiazide is administered to the patient intravenously at a dosage of about 0.1 to 100 mg cyclothiazide/kg body weight as determined by the attending physician. The patient is monitored for reduction or inhibition of obstructive sleep apnea and associated symptoms. […] Aniracetam is administered to the patient intravenously at a dosage of about 0.1 to 100 mg aniracetam/kg body weight as determined by the attending physician. The patient is monitored for reduction or inhibition of obstructive sleep apnea and associated symptoms.

[5] = system: XII motoneurons; assay: Whole-cell voltage-clamp of XII motoneurons in the medullary slice; assay type: cell-based, rat; conditions: 90 μM for 15 minutes
Protocol: as §1
XII motoneurons were selected according to a hierarchy of criteria. Selection criteria for respiratory motoneurons are described by Funk et al. (1993) J Neurophysiol 70:1497-1515. […]
Respiratory motor output was recorded from cut ends of XII nerve roots rectified, filtered and integrated. […] The activity in individual XII motoneurons was measured via whole-cell voltage-clamp techniques.

[6] = short-duration (1 hour) application, 90 μM, FIG. 2
[7] = injection into XII motor nucleus (1 μL, 25 mM), 30 minutes post-injection, FIG. 7
[8] = local application to the IVth ventricle, FIG. 8A
[9] = micropipette injection into hypoglossal (XII) motor nucleus, 8 minutes after, FIG. 6

SMILES: O=C(c1ccc2c(c1)OCCO2)N1CCCCC1 [CX546]
- effect on respiratory rate (frequency) in slice ([1]; 1-hour bath application, 90 μM): increase in ∫XII nerve discharge and respiration rate that subsides over time with drug removal
- effect on ∫XII nerve discharge ([1]; 1-hour bath application, 90 μM, FIG. 1B): induces an increase in ∫XII nerve discharge and respiration rate that subsides over time with drug removal
- ∫XII nerve discharge amplitude ([1]; 20 μM, FIG. 5A): induces a persistent potentiation of ∫XII nerve discharge amplitude
- long-lasting potentiation of ∫XII nerve amplitude [1, 6]: but not CX546 causes long-lasting potentiation
- snoring [2]: reduces snoring
- average increase of ∫GG activity compared to control ([3]; intravenous injection into femoral vein, 130 μg/kg, FIG. 9A): 15%
- respiratory rate ([3]; intravenous injection, 130 μg/kg, FIG. 9B): no long term changes in respiratory rate
- duration genioglossus muscle activity remained elevated ([3]; intravenous injection, 130 μg/kg, no diminution of amplitude): more than 2 hours

SMILES: COc1ccc(C(=O)N2CCCC2=O)cc1 [aniracetam]
- ∫XII nerve discharge amplitude ([1]; 700 μM, FIG. 5B): induces a persistent potentiation of ∫XII nerve discharge amplitude
- snoring [2]: reduces snoring
- symptoms of obstructive sleep apnea [4]: reduces the symptoms of obstructive sleep apnea

SMILES: NS(=O)(=O)c1cc2c(cc1Cl)NC(C1CC3C=CC1C3)NS2(=O)=O (centres unmarked) [cyclothiazide]
- effect on respiratory rate (frequency) in slice ([1]; 1-hour bath application, 90 μM): minor effects on respiratory rate (frequency)
- potentiation of hypoglossal (∫XII) nerve discharge amplitude ([1]; 1-hour bath application, 90 μM, FIG. 1A): 2 fold
- dose-response of normalized ∫XII nerve amplitude ([1]; 1 hour following a 1 hour application of 3, 9, 30, or 90 μM, FIG. 3): ∫XII nerve amplitude increases as a function of cyclothiazide concentration
- persistence of potentiation of ∫XII nerve discharge amplitude ([1]; after 1-hour bath application, 90 μM, drug removed): > 12 h
- long-lasting potentiation of ∫XII nerve amplitude [1, 6]: causes long-lasting potentiation of ∫XII nerve amplitude
- increase of ∫XII nerve output ([1]; short-duration (1 hour) application, 90 μM, group data 1-12 hours after, FIG. 2): 200-300%
- snoring [2]: reduces snoring
- average increase of ∫GG activity relative to control [3, 7]: 300%
- peak increase of ∫GG activity relative to control [3, 7]: 600%
- average increase of ∫GG activity compared to control [3, 8]: 50%
- peak increase of ∫GG activity compared to control [3, 8]: 150%
- respiratory rate ([3]; local application to the IVth ventricle, FIG. 8B): without affecting respiratory rate
- duration of elevation of ∫GG activity ([3]; local application to the IVth ventricle, until the end of the experiment): ~90 min
- respiratory frequency [3, 9]: does not affect respiratory frequency
- ∫GG activity [3, 9]: induces an increase in ∫GG activity
- XII motoneuron drive currents ([5]; 1 hour post-treatment, FIG. 4A): potentiates endogenously generated XII motoneuron drive currents
- XII motoneuron charge transfer and ∫XII nerve peak amplitude ([5]; control vs 1 hour post-treatment, FIG. 4B): induces XII motoneuron charge transfer and increase of ∫XII nerve amplitude
- symptoms of obstructive sleep apnea [4]: reduces the symptoms of obstructive sleep apnea
